# How the values were obtained:
# [1] = tested on: H1N1 (influenza A/New Caledonia/20/99); assay: microbe, parasite or virus in culture; assay type: cell-based; settings: H1N1, A549, 48 h
# UXF 1138 = assay: Cytotoxicity, propidium iodide based monolayer assay; assay type: cell-based; settings: 96 h; UXF 1138 uterine sarcoma, four days of treatment, T/C=50%; read-out: Absolute IC50
# Description: (§1) The cytotoxicity was tested for compounds of the invention on five different cell-lines, namely LXFL 1121, MAXF 401, MMXF L-636, PRXF PC-3M and UXF 1138 which are respectively lung large cell carcinoma, breast adeno carcinoma, multiple myeloma, prostate adeno carcinoma and uterine sarcoma.
# (§2) A working stock solution of the test compounds was prepared in DMSO at a concentration of 33 mM or 8.25 mM, and small aliquots were stored at −20° C. On each day of an experiment, a frozen aliquot of the working stock solution was thawed and stored at room temperature prior to and during treatment.
# (§3) All liquid handling steps were performed using the Tecan Freedom EVO 200 platform. First, serial 2-fold dilutions of the 33 mM DMSO working stock solution were done in DMSO. The DMSO dilutions were then diluted 1:22 into cell culture medium in an intermediate dilution plate. Finally, 10 μl taken from the intermediate dilution plate were transferred to 140 μl/well of the final assay plate. Thus, the DMSO serial dilutions were diluted 1:330 with cell culture medium, and the DMSO concentration in the assay was 0.3% v/v.
# (§4) Cell lines were routinely passaged once or twice weekly and maintained in culture for up to 20 passages. Most cell lines were grown at 37° C. in a humidified atmosphere with 5% CO2 in RPMI 1640 medium (25 mM HEPES, with L-glutamine, #FG1385, Biochrom, Berlin, Germany) supplemented with 10% (v/v) fetal calf serum (Sigma, Taufkirchen, Germany) and 0.05 mg/mL gentamicin (Life Technologies, Karlsruhe, Germany).
# (§5) A modified propidium iodide (PI) based monolayer assay was used to assess the anti-cancer activity of the compounds. Briefly, cells were harvested from exponential phase cultures, counted and plated in 96 well flat-bottom microtiter plates at a cell density of 4,000 to 40,000 cells/well dependent on the cell line's growth rate. The individual seeding density for each cell line ensure exponential growth conditions over the whole or at least the bigger part of the treatment period. After a 24 h recovery period, to allow the cells to resume exponential growth, 10 μl of culture medium (6 control wells/cell line/plate) or of culture medium with test compounds were added. Compounds were applied at ten concentrations in 2-fold increments in duplicates up to 25 μM or 100 μM and treatment continued for four days. After four days of treatment, cells were next washed with 200 μl PBS to remove dead cells and debris, then 200 μl of a solution containing 7 μg/ml propidium iodide (PI) and 0.1% (v/v) Triton X-100 was added. After an incubation period of 1-2 hours at room temperature, fluorescence (FU) was measured using the Enspire Multimode Plate Reader (excitation λ=530 nm, emission k=620 nm) to quantify the amount of attached viable cells.
# (§6) Drug effects were expressed in terms of the percentage of the fluorescence signal, obtained by comparison of the mean signal in the treated wells with the mean signal of the untreated controls (expressed by the test-versus-control value, T/C−value [%]):
# (§7) [formula] IC values reported reflect the concentration of the test compound that achieves T/C=50%. Calculation was done by 4 parameter non-linear curve fit.
# [2] = biological target: T1, CISD1 Gene Product (mitoNEET) (Homo sapiens, UniProt Q9NZ45); assay: Stability of Fe-S cluster binding of purified NEET protein (absorbance 458 nm); assay type: biochemical; settings: for Time (in minutes) to achieve 50% loss of bound cluster (Absorbance 458 nm) / Residual cluster bound at end of experiment (Percentage Absorbance 458 nm at time zero): mitoNEET 20 μM, compound 60 μM; for Time (in minutes) to achieve 50% loss of bound cluster (Absorbance 458 nm): pH 6, 37° C., run time 180 minutes, vehicle control 80; for Residual cluster bound at end of experiment (Percentage Absorbance 458 nm at time zero): pH 6, at 180 minutes, vehicle control 16%
# T1 sequence (Q9NZ45 33-108 limits assumed): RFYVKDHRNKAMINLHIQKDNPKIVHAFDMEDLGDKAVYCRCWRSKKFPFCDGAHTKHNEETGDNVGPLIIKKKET
# Description: (§8) The modulator effect on the NEET proteins encoded by human CISD1, CISD2, and CISD3 genes by the compounds of the invention has been tested and is reported below. Particularly, the biochemical function of the NEET proteins is measured by the stability of Fe—S cluster binding of the purified NEET proteins.
# (§9) The Fe—S cluster binding capacity of NEET proteins is known to be coordinated by four amino-acids in a stretch of 16 (three Cysteine and one Histidine). As the lability of the Fe—S cluster of NEET proteins is sensitive to the environment, cluster stability measurements are one of the measures of interactions of NEET proteins with small molecules and compounds. NEET protein/2Fe-2S cluster stability can be assessed by monitoring the decay in absorbance of its characteristic 458-nm peak (characteristic of the oxidized 2Fe-2S cluster) over time. Each NEET protein (mitoNEET, NAF-1 and Miner 2) was tested for its Fe—S binding in the absence or presence of a compound according to the invention (see table 4 below). The rate of cluster release (time in minutes to achieve 50% loss of bound Fe—S cluster) was compared for each NEET protein in the presence of one of the compounds of the invention (in a 1:3 protein:compound molar ratio) relative to each protein alone.
# (§10) At pH 6, all the three NEET proteins (mitoNEET, NAF-1 and Miner 2) have a characteristic rate of loss of the bound Fe—S cluster that can be measured by the decrease of absorbance at wavelength 458 nm over time, using a spectrophotometer. Thus, Bis-Tris buffer (100 mM Bis-Tris pH6, 100 mM Nacl) was used at pH 6 to dilute either DMSO (Blank sample: Bis-Tris Buffer pH 6, 66 μM DMSO), DMSO and one of the three NEET proteins (Control sample: Bis-Tris Buffer pH 6, 66 μM DMSO, 20 μM purified NEET protein) or DMSO, one of the three NEET proteins and a compound of the invention (Test sample: Bis-Tris Buffer pH 6, 66 μM DMSO, 20 μM purified NEET protein, 60 μM compound of the invention).
# (§11) A reaction mix containing DMSO diluted in the Bis-Tris Buffer with or without a compound of the invention was prepared. The purified NEET protein was the last component added to the reaction mix which was then aliquoted into 4 replicates in 96 wells plates. The absorbance at wavelength 458 nm was taken at 5 minutes intervals at 37° C. with a spectrofluorimeter. The assay run time for CISD2 gene product (NAF-1) was 500 minutes and 180 minutes for both the CISD1gene product (mitoNEET) and the CISD3 gene product (Miner2).
# (§12) In addition to time monitoring, residual bound Fe—S cluster to NEET protein was measured at the final point of the spectrometry assay for each Test sample and compared to the Control sample data (in parenthesis table 4). This residual binding is measured by the differential percentage between the absorbance 458 nm at time zero and the absorbance 458 nm at the end of the experiment (i.e. respectively 500 or 180 minutes as described here above), showing the percentage of NEET protein still able to bind a Fe—S cluster.
# (§13) Analysis of the absorbance enables the time for which 50% loss of bound Fe—S cluster is reached (i.e. a 50% absorbance decrease at 458 nm) for each Test sample and each Control sample (in parenthesis table 4) to be determined. The data are then compared to determine whether the compound of the invention stabilizes or destabilizes the NEET protein/Fe—S cluster binding.
# [3] = biological target: T2, CISD2 Gene Product (NAF-1) (Homo sapiens, UniProt Q8N5K1); assay: as above; assay type: biochemical; settings: for Time (in minutes) to achieve 50% loss of bound cluster (Absorbance 458 nm) / Residual cluster bound at end of experiment (Percentage Absorbance 458 nm at time zero): NAF-1 20 μM, compound 60 μM; for Time (in minutes) to achieve 50% loss of bound cluster (Absorbance 458 nm): pH 6, 37° C., run time 500 minutes, vehicle control 310 or 210; for Residual cluster bound at end of experiment (Percentage Absorbance 458 nm at time zero): pH 6, at 500 minutes, vehicle control 3%; for Stabiliser or destabiliser of Fe-S cluster binding by CISD2 Gene Product (NAF-1): time to 50% cluster loss changed by more than 25% compared to the Control sample, at the concentrations tested
# T2 sequence (Q8N5K1 57-135 limits assumed): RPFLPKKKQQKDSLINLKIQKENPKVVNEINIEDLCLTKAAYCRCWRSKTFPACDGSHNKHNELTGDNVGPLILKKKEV
# Description: as §8, §9, §10, §11, §12, §13
# [4] = biological target: T3, CISD3 Gene Product (Miner2) (Homo sapiens, UniProt P0C7P0); assay: as above; assay type: biochemical; settings: for Residual cluster bound at end of experiment (Percentage Absorbance 458 nm at time zero): CISD3 gene product 20 μM, pH 6, at 180 minutes, vehicle control 11%; for Residual cluster bound at end of experiment (Percentage Absorbance 458 nm at time zero) / Time (in minutes) to achieve 50% loss of bound cluster (Absorbance 458 nm): compound 60 μM; for Time (in minutes) to achieve 50% loss of bound cluster (Absorbance 458 nm): Miner2 20 μM, pH 6, 37° C., run time 180 minutes, vehicle control 60
# T3 sequence (P0C7P0 15-127): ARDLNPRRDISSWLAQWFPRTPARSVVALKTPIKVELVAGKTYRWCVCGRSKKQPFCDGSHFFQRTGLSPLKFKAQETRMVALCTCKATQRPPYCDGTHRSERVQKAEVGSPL
# Description: as §8, §9, §10, §11, §12, §13
# PRXF PC-3M = assay: Cytotoxicity, propidium iodide based monolayer assay; assay type: cell-based; settings: Homo sapiens, 96 h; PRXF PC-3M prostate adeno carcinoma, four days of treatment, T/C=50%; read-out: Absolute IC50
# Description: as §1, §2, §3, §4, §5, §6, §7
# [5] = time to 50% cluster loss changed by more than 25% compared to the Control sample, at the concentrations tested
SMILES,IC50 [1],IC50 (UXF 1138),Time (in minutes) to achieve 50% loss of bound cluster (Absorbance 458 nm) [2],Residual cluster bound at end of experiment (Percentage Absorbance 458 nm at time zero) [2],"Stabiliser or destabiliser of Fe-S cluster binding by CISD1 Gene Product (mitoNEET) [2, 5]",Time (in minutes) to achieve 50% loss of bound cluster (Absorbance 458 nm) [3],Residual cluster bound at end of experiment (Percentage Absorbance 458 nm at time zero) [3],Stabiliser or destabiliser of Fe-S cluster binding by CISD2 Gene Product (NAF-1) [3],Residual cluster bound at end of experiment (Percentage Absorbance 458 nm at time zero) [4],Time (in minutes) to achieve 50% loss of bound cluster (Absorbance 458 nm) [4],"Stabiliser or destabiliser of Fe-S cluster binding by CISD3 Gene Product (Miner2) [4, 5]",IC50 (PRXF PC-3M)
"COCCNc1ccc(C(=O)Nc2sc3c(c2C(=O)O)CC(C)(C)CC3(C)C)cc1 [Compound #60, 2-[[4-(2-Methoxyethylamino)benzoyl]amino]-5,5,7,7-tetramethyl-4,6-dihydrobenzothiophene-3-carboxylic acid]",10 nM,851 nM,100 (80) minutes,35% (16%),stabilisers,120 (310) minutes,12% (3%),destabilisers,38% (11%),90 (60) minutes,Stabilisers,
"CC1(C)Cc2c(sc(NC(=O)c3ccc(NC4CCOCC4)cc3)c2C(=O)O)C(C)(C)C1 [Compound #35, 5,5,7,7-Tetramethyl-2-[[4-(tetrahydropyran-4-ylamino)benzoyl]amino]-4,6-dihydrobenzothiophene-3-carboxylic acid]",16.8 nM,743 nM,85 (80) minutes,26% (16%),,220 (310) minutes,13% (3%),destabilisers,20% (11%),50 (60) minutes,,702 nM

# Source: patent US11492347B2 (ENYO PHARMA, priority 2018, dated 2022)
